These results are taken from publication PMC5678437, “A new antagonist for CCR4 attenuates allergic lung inflammation in a mouse model of asthma” (Scientific Reports, 2017).

Common to all, as to assay type: cell-based
The target of one assay is T1, CXCR3 (Homo sapiens, UniProt P49682).
T1 construct: expressed in transfected cells; host or cells: HEK293; plasmid from Chinese National Human Genome Center
T1 sequence (P49682 1-415 isoform P49682-2): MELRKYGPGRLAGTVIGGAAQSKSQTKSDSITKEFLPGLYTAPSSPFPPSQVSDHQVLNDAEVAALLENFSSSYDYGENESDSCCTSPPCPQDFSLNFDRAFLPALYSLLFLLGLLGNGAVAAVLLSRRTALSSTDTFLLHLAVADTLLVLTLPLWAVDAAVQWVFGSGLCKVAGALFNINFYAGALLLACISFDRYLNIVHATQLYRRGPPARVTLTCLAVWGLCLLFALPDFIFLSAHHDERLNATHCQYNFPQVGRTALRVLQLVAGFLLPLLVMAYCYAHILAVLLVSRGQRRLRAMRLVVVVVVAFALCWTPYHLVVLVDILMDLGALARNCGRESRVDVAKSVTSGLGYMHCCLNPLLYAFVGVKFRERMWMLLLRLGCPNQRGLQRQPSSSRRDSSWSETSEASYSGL
Description: Chemotaxis inhibition assay for receptor specificity, HEK293-CXCR3. The settings on record: 0.2, 1, 5, 25 μM, 30 min pretreatment. How it is done:
(§1) HEK293 cells were transfected with different chemokine receptors. The corresponding chemokines of different receptors were placed in the lower chambers. The transfected cells were pretreated with different concentrations of Compound 8a or 1‰ DMSO for 30 min at a density of 1 × 10^6 cells/ml and added to the upper chambers, the final concentration of the compound is: 0.2 μM, 1 μM, 5 μM, and 25 μM, respectively.

The next assay addresses T2, CCR4 (Homo sapiens, UniProt P51679).
T2 construct: expressed in transfected cells; cell membrane extract
T2 sequence (P51679 1-360): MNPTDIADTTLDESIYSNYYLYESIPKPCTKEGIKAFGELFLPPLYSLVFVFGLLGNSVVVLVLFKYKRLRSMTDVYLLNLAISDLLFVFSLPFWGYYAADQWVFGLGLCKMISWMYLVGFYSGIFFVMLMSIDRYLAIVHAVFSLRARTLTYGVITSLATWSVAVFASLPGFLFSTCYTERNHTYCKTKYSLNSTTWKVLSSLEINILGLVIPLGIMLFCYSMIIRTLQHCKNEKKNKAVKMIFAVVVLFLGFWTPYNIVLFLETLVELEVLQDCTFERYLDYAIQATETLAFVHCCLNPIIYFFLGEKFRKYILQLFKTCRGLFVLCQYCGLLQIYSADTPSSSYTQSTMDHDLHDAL
Description: Chemotaxis inhibition assay, pcDI-CCR4-transfected HEK293 cells. The settings on record: 1 μM compound, 30 min pretreatment; C27 100 ng/ml; compared with compound 22 and compound 6b. How it is done: Chemokine receptor expression plasmid was transiently transfected into HEK293 by electroporation at 120 V for 20 ms, using an electric pulse generator (Electro Square Porator ECM 830; BTX, San Diego, CA). Forty-eight-well micro chemotaxis chambers (Neutroprobe, Bethesda, MD, USA) were used in this assay. Forty-eight hours later, the cells were pretreated with compounds or compounds dissolved medium (1‰ DMSO) for 30 min at 37 °C prior to stimulation with chemoattractant. Chemoattractant diluted in RPMI 1640 medium supplemented with 0.1% bovine serum albumin (BSA) was placed in the lower chambers (27.5 μl/well). In these assays, CCL22 and CCL17 (Peprotech, Rocky Hill, NJ, USA) were used as chemoattractant and the final concentrations of chemoattractant were 10 ng/ml and 80 ng/ml respectively. The pcDI-CCR4-transfected HEK293 cells were resuspended in the same medium at a density of 1 × 10^6 cells/ml and added to the upper chambers (55 μl/well). […] Cells that migrated into each filter were counted in five randomly selected high-power fields (400 × ) per well. […] The chemotactic index was calculated and expressed as the number of cells that migrated to the sample over the number of cells that migrated to the control medium.

A further assay concerns the target T3, CCR6 (Homo sapiens, UniProt P51684).
T3 construct: expressed in transfected cells; host or cells: HEK293, pcDI-CCR6 plasmid made in the authors' laboratory
T3 sequence (P51684 1-374): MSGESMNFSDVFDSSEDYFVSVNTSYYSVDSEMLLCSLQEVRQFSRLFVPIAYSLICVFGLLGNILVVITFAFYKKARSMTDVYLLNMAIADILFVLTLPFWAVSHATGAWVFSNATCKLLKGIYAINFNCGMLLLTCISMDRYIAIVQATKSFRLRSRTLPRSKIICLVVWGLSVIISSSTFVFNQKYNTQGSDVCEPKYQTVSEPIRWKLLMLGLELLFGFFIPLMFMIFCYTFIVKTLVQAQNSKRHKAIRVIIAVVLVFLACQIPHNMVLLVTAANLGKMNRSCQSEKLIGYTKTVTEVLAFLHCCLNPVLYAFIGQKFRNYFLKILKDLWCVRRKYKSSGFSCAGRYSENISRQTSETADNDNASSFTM
Description: Chemotaxis inhibition assay for receptor specificity, HEK293-CCR6. The settings on record: 0.2, 1, 5, 25 μM, 30 min pretreatment. The method, then: as §1

The structures appear in SMILES notation.

Take `O=C(C1CCCCN1)N1CCN(c2nc(Cl)cc(NCc3ccc(Cl)cc3Cl)n2)CC1` (stereo not drawn) [compound 8a, {4-[4-Chloro-6-(2,4-dichloro-benzylamino)-pyrimidin-2-yl]-piperazin-1-yl}-piperidin-2-yl-methanone]: at CXCR3, the “inhibition of chemotaxis of HEK293-CXCR3 to its ligand” value was “few influence”. In addition, on CCR4, the “inhibition of chemotaxis of CCR4 transfected HEK293 to C27” value is on record as “more positive efficiency”. Moreover, at CCR6, the “inhibition of chemotaxis of HEK293-CCR6 to its ligand” value is on record as “few influence”.
